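Method: 48-hour compound exposure of cells in 96-well plates, five concentrations, linear interpolation of endpoints. TGI: concentration producing complete growth inhibition.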
Key:
Test in all cases: NCI tumour cell line growth inhibition, 48 h
LXFL 529 NSCLC = system: LXFL 529 NSCLC
SNB-75 CNS = system: SNB-75 CNS
SF-539 CNS = system: SF-539 CNS
OVCAR-8 ovarian = system: OVCAR-8 ovarian
M14 melanoma = system: M14 melanoma
NCI-H226 lung = system: NCI-H226 lung
SF-268 CNS = system: SF-268 CNS
786-0 renal = system: 786-0 renal
TK-10 renal = system: TK-10 renal
MALME-3M melanoma = system: MALME-3M melanoma
K-562 leukemia = system: K-562 leukemia
NCI-H460 lung = system: NCI-H460 lung
HCT-15 colon = system: HCT-15 colon
UO-31 renal = system: UO-31 renal
ACHN renal = system: ACHN renal
EKVX NSCLC = system: EKVX NSCLC
OVCAR-3 ovarian = system: OVCAR-3 ovarian
UACC-257 melanoma = system: UACC-257 melanoma
SK-MEL-28 melanoma = system: SK-MEL-28 melanoma
A549 NSCLC = system: A549 NSCLC
HT29 colon = system: HT29 colon
SNB-19 CNS = system: SNB-19 CNS
A498 renal = system: A498 renal
SF-295 CNS = system: SF-295 CNS
SN12C renal = system: SN12C renal
U251 CNS = system: U251 CNS
HCT-116 colon = system: HCT-116 colon
KM20L2 colon = system: KM20L2 colon
RXF-631 renal = system: RXF-631 renal
KM12 colon = system: KM12 colon
CCRF-CEM leukemia = system: CCRF-CEM leukemia
HL-60(TB) leukemia = system: HL-60(TB) leukemia
OVCAR-4 ovarian = system: OVCAR-4 ovarian
OVCAR-5 ovarian = system: OVCAR-5 ovarian
NCI-H23 lung = system: NCI-H23 lung
HCC-2998 colon = system: HCC-2998 colon
LOX IMVI melanoma = system: LOX IMVI melanoma
SK-MEL-2 melanoma = system: SK-MEL-2 melanoma
XF 498 CNS = system: XF 498 CNS
RXF 393 renal = system: RXF 393 renal
SNB-78 CNS = system: SNB-78 CNS
DLD-1 colon = system: DLD-1 colon
NCI-H522 lung = system: NCI-H522 lung
HOP-18 NSCLC = system: HOP-18 NSCLC
SK-OV-3 ovarian = system: SK-OV-3 ovarian
RPMI-8226 leukemia = system: RPMI-8226 leukemia
MOLT-4 leukemia = system: MOLT-4 leukemia
SW-620 colon = system: SW-620 colon
DMS 114 small cell lung = system: DMS 114 small cell lung
COLO 205 colon = system: COLO 205 colon
HOP-62 NSCLC = system: HOP-62 NSCLC
M19-MEL melanoma = system: M19-MEL melanoma
SR leukemia = system: SR leukemia
SK-MEL-5 melanoma = system: SK-MEL-5 melanoma
UACC-62 melanoma = system: UACC-62 melanoma
CAKI-1 renal = system: CAKI-1 renal
HOP-92 NSCLC = system: HOP-92 NSCLC
DMS 273 small cell lung = system: DMS 273 small cell lung
IGROV1 ovarian = system: IGROV1 ovarian

SMILES: O=C1Nc2ccccc2C1(O)C/C(=N/O)c1ccc2ccccc2c1 (configuration not stated)
- TGI (LXFL 529 NSCLC): > 100 µM
- TGI (SNB-75 CNS): > 100 µM
- TGI (SF-539 CNS): > 100 µM
- TGI (OVCAR-8 ovarian): > 100 µM
- TGI (M14 melanoma): > 100 µM
- TGI (NCI-H226 lung): > 100 µM
- TGI (SF-268 CNS): > 100 µM
- TGI (786-0 renal): > 100 µM
- TGI (TK-10 renal): > 100 µM
- TGI (MALME-3M melanoma): > 100 µM
- TGI (K-562 leukemia): > 100 µM
- TGI (NCI-H460 lung): > 100 µM
- TGI (HCT-15 colon): > 100 µM
- TGI (UO-31 renal): > 100 µM
- TGI (ACHN renal): > 100 µM
- TGI (EKVX NSCLC): > 100 µM
- TGI (OVCAR-3 ovarian): > 100 µM
- TGI (UACC-257 melanoma): > 100 µM
- TGI (SK-MEL-28 melanoma): > 100 µM
- TGI (A549 NSCLC): > 100 µM
- TGI (HT29 colon): > 100 µM
- TGI (SNB-19 CNS): > 100 µM
- TGI (A498 renal): > 100 µM
- TGI (SF-295 CNS): > 100 µM
- TGI (SN12C renal): > 100 µM
- TGI (U251 CNS): > 100 µM
- TGI (HCT-116 colon): > 100 µM
- TGI (KM20L2 colon): > 100 µM
- TGI (RXF-631 renal): > 100 µM
- TGI (KM12 colon): > 100 µM
- TGI (CCRF-CEM leukemia): > 100 µM
- TGI (HL-60(TB) leukemia): > 100 µM
- TGI (OVCAR-4 ovarian): > 100 µM
- TGI (OVCAR-5 ovarian): > 100 µM
- TGI (NCI-H23 lung): > 100 µM
- TGI (HCC-2998 colon): > 100 µM
- TGI (LOX IMVI melanoma): 81.9 µM
- TGI (SK-MEL-2 melanoma): > 100 µM
- TGI (XF 498 CNS): > 100 µM
- TGI (RXF 393 renal): > 100 µM
- TGI (SNB-78 CNS): > 100 µM
- TGI (DLD-1 colon): > 100 µM
- TGI (NCI-H522 lung): > 100 µM
- TGI (HOP-18 NSCLC): > 100 µM
- TGI (SK-OV-3 ovarian): > 100 µM
- TGI (RPMI-8226 leukemia): > 100 µM
- TGI (MOLT-4 leukemia): > 100 µM
- TGI (SW-620 colon): > 100 µM
- TGI (DMS 114 small cell lung): > 100 µM
- TGI (COLO 205 colon): > 100 µM
- TGI (HOP-62 NSCLC): > 100 µM
- TGI (M19-MEL melanoma): > 100 µM

SMILES: Cc1ccc(C)c(NC(=O)C(=O)C(C(=O)c2ccc3ccccc3c2)C2OC(=O)c3ccccc32)c1 (configuration not stated)
- TGI (LXFL 529 NSCLC): 25.1 µM
- TGI (SNB-75 CNS): 58.8 µM
- TGI (SF-539 CNS): 17.4 µM
- TGI (OVCAR-8 ovarian): 20.3 µM
- TGI (M14 melanoma): 28.8 µM
- TGI (SR leukemia): > 100 µM
- TGI (NCI-H226 lung): 17.2 µM
- TGI (SF-268 CNS): 23.2 µM
- TGI (TK-10 renal): 64.6 µM
- TGI (SK-MEL-5 melanoma): 31.5 µM
- TGI (UACC-62 melanoma): 27.8 µM
- TGI (K-562 leukemia): > 100 µM
- TGI (NCI-H460 lung): 27.7 µM
- TGI (HCT-15 colon): 44.8 µM
- TGI (UO-31 renal): 31.6 µM
- TGI (ACHN renal): 87.1 µM
- TGI (EKVX NSCLC): 51.1 µM
- TGI (UACC-257 melanoma): 36.5 µM
- TGI (SK-MEL-28 melanoma): 34.4 µM
- TGI (CAKI-1 renal): 52.6 µM
- TGI (A549 NSCLC): 45.7 µM
- TGI (HT29 colon): > 100 µM
- TGI (SNB-19 CNS): 31.2 µM
- TGI (HOP-92 NSCLC): 78 µM
- TGI (A498 renal): 47.4 µM
- TGI (SF-295 CNS): 66.2 µM
- TGI (SN12C renal): 39.8 µM
- TGI (U251 CNS): 16.2 µM
- TGI (HCT-116 colon): 24.9 µM
- TGI (KM20L2 colon): 53.3 µM
- TGI (RXF-631 renal): 65.6 µM
- TGI (KM12 colon): 33.2 µM
- TGI (CCRF-CEM leukemia): 64.9 µM
- TGI (HL-60(TB) leukemia): 52 µM
- TGI (OVCAR-4 ovarian): > 100 µM
- TGI (OVCAR-5 ovarian): 42.5 µM
- TGI (NCI-H23 lung): 54.8 µM
- TGI (HCC-2998 colon): 28.7 µM
- TGI (LOX IMVI melanoma): 35.1 µM
- TGI (DMS 273 small cell lung): > 100 µM
- TGI (SK-MEL-2 melanoma): 44.7 µM
- TGI (XF 498 CNS): 44 µM
- TGI (RXF 393 renal): 9.74 µM
- TGI (IGROV1 ovarian): 40.5 µM
- TGI (SNB-78 CNS): > 100 µM
- TGI (DLD-1 colon): 64.3 µM
- TGI (NCI-H522 lung): 22.5 µM
- TGI (SK-OV-3 ovarian): 48.9 µM
- TGI (RPMI-8226 leukemia): > 100 µM
- TGI (MOLT-4 leukemia): > 100 µM
- TGI (SW-620 colon): 29.4 µM
- TGI (DMS 114 small cell lung): 26.3 µM
- TGI (COLO 205 colon): 32.1 µM
- TGI (HOP-62 NSCLC): 62.1 µM
- TGI (M19-MEL melanoma): 30.5 µM

SMILES: CC(=O)OCc1c2ccccc2c(C)c2c1cc(F)c1ccccc12
- TGI (LXFL 529 NSCLC): > 100 µM
- TGI (SNB-75 CNS): 58.4 µM
- TGI (SF-539 CNS): 59.4 µM
- TGI (OVCAR-8 ovarian): 47.4 µM
- TGI (M14 melanoma): > 100 µM
- TGI (SR leukemia): > 100 µM
- TGI (NCI-H226 lung): > 100 µM
- TGI (SF-268 CNS): 85.3 µM
- TGI (786-0 renal): 82.3 µM
- TGI (TK-10 renal): > 100 µM
- TGI (SK-MEL-5 melanoma): 69.6 µM
- TGI (MALME-3M melanoma): > 100 µM
- TGI (UACC-62 melanoma): 43.6 µM
- TGI (K-562 leukemia): 78.9 µM
- TGI (UO-31 renal): > 100 µM
- TGI (ACHN renal): 46.9 µM
- TGI (EKVX NSCLC): > 100 µM
- TGI (OVCAR-3 ovarian): 57.5 µM
- TGI (UACC-257 melanoma): > 100 µM
- TGI (SK-MEL-28 melanoma): > 100 µM
- TGI (CAKI-1 renal): 98 µM
- TGI (A549 NSCLC): > 100 µM
- TGI (HT29 colon): 42.4 µM
- TGI (SNB-19 CNS): 82.4 µM
- TGI (HOP-92 NSCLC): > 100 µM
- TGI (A498 renal): > 100 µM
- TGI (SF-295 CNS): > 100 µM
- TGI (SN12C renal): 33.8 µM
- TGI (U251 CNS): 58.8 µM
- TGI (HCT-116 colon): > 100 µM
- TGI (KM20L2 colon): 87 µM
- TGI (RXF-631 renal): 63 µM
- TGI (KM12 colon): > 100 µM
- TGI (CCRF-CEM leukemia): 40.5 µM
- TGI (HL-60(TB) leukemia): 67.8 µM
- TGI (OVCAR-4 ovarian): 77.9 µM
- TGI (OVCAR-5 ovarian): > 100 µM
- TGI (NCI-H23 lung): 68.4 µM
- TGI (HCC-2998 colon): 72.3 µM
- TGI (LOX IMVI melanoma): 46.3 µM
- TGI (DMS 273 small cell lung): 26.4 µM
- TGI (SK-MEL-2 melanoma): 35.2 µM
- TGI (XF 498 CNS): 45.2 µM
- TGI (RXF 393 renal): 57.9 µM
- TGI (IGROV1 ovarian): 75.2 µM
- TGI (SNB-78 CNS): 59.8 µM
- TGI (DLD-1 colon): 64.3 µM
- TGI (NCI-H522 lung): 25.6 µM
- TGI (HOP-18 NSCLC): > 100 µM
- TGI (SK-OV-3 ovarian): > 100 µM
- TGI (MOLT-4 leukemia): 32.6 µM
- TGI (SW-620 colon): 67.3 µM
- TGI (DMS 114 small cell lung): > 100 µM
- TGI (COLO 205 colon): 36.4 µM
- TGI (HOP-62 NSCLC): > 100 µM
